Results as given in the NIST ThermoML archive (doi:10.1016/j.jct.2015.02.008).
Numbers after ± are expanded uncertainties.

Tests used:
[1] = for molar entropy: 101.33 kPa, Vacuum adiabatic calorimetry
[2] = molar heat capacity at saturation pressure; conditions: Vacuum adiabatic calorimetry
[3] = Molar enthalpy of transition or fusion; conditions: Crystal; Adiabatic calorimetry

Oc1cccc2ccccc12 [1-naphthol]
Conditions | Triple point temperature [K] | molar entropy [J/K/mol] | molar heat capacity [J/K/mol]
[1], 5 K, Crystal | – | 0.1164 ± 0.017 | –
[1], 10 K, Crystal | – | 1.006 ± 0.025 | –
[1], 20 K, Crystal | – | 5.712 ± 0.067 | –
[1], 30 K, Crystal | – | 12.49 ± 0.075 | –
[1], 40 K, Crystal | – | 19.88 ± 0.091 | –
[1], 50 K, Crystal | – | 27.32 ± 0.11 | –
[1], 60 K, Crystal | – | 34.57 ± 0.12 | –
[1], 70 K, Crystal | – | 41.6 ± 0.15 | –
[1], 80 K, Crystal | – | 48.37 ± 0.17 | –
[1], 90 K, Crystal | – | 54.94 ± 0.3 | –
[1], 100 K, Crystal | – | 61.3 ± 0.31 | –
[1], 120 K, Crystal | – | 73.57 ± 0.32 | –
[1], 140 K, Crystal | – | 85.45 ± 0.33 | –
[1], 160 K, Crystal | – | 97.07 ± 0.35 | –
[1], 180 K, Crystal | – | 108.59 ± 0.37 | –
[1], 200 K, Crystal | – | 120.05 ± 0.38 | –
[1], 220 K, Crystal | – | 131.53 ± 0.41 | –
[1], 240 K, Crystal | – | 143.02 ± 0.42 | –
[1], 260 K, Crystal | – | 154.55 ± 0.44 | –
[1], 280 K, Crystal | – | 166.13 ± 0.47 | –
[1], 298.15 K, Crystal | – | 176.67 ± 0.48 | –
[1], 300 K, Crystal | – | 177.75 ± 0.48 | –
[1], 320 K, Crystal | – | 189.4 ± 0.5 | –
[1], 340 K, Crystal | – | 201.04 ± 0.52 | –
[1], 360 K, Crystal | – | 212.69 ± 0.54 | –
[1], 368.49 K, Crystal | – | 217.66 ± 0.55 | –
[1], 368.49 K, Liquid | – | 283.48 ± 0.67 | –
[1], 380 K, Liquid | – | 292.12 ± 0.68 | –
[1], 400 K, Liquid | – | 306.76 ± 0.71 | –
[1], 420 K, Liquid | – | 320.97 ± 0.73 | –
[1], 440 K, Liquid | – | 334.8 ± 0.76 | –
[1], Crystal, Adiabatic calorimetry | 368.49 ± 0.041 | – | –
[2], 4.908 K, Crystal | – | – | 0.3991 ± 0.017
[2], 5 K, Crystal | – | – | 0.4074 ± 0.017
[2], 5.887 K, Crystal | – | – | 0.6735 ± 0.025
[2], 6.773 K, Crystal | – | – | 0.9894 ± 0.033
[2], 7.696 K, Crystal | – | – | 1.413 ± 0.05
[2], 8.736 K, Crystal | – | – | 1.995 ± 0.067
[2], 9.852 K, Crystal | – | – | 2.752 ± 0.083
[2], 10 K, Crystal | – | – | 2.86 ± 0.033
[2], 11.02 K, Crystal | – | – | 3.658 ± 0.033
[2], 12.26 K, Crystal | – | – | 4.664 ± 0.042
[2], 13.57 K, Crystal | – | – | 5.837 ± 0.05
[2], 14.97 K, Crystal | – | – | 7.2 ± 0.058
[2], 16.55 K, Crystal | – | – | 8.755 ± 0.067
[2], 18.3 K, Crystal | – | – | 10.52 ± 0.075
[2], 20 K, Crystal | – | – | 12.18 ± 0.083
[2], 20.23 K, Crystal | – | – | 12.41 ± 0.083
[2], 22.38 K, Crystal | – | – | 14.54 ± 0.1
[2], 24.77 K, Crystal | – | – | 16.86 ± 0.11
[2], 27.44 K, Crystal | – | – | 19.4 ± 0.12
[2], 30 K, Crystal | – | – | 21.7 ± 0.067
[2], 30.38 K, Crystal | – | – | 22.03 ± 0.067
[2], 33.63 K, Crystal | – | – | 24.81 ± 0.075
[2], 37.26 K, Crystal | – | – | 27.77 ± 0.075
[2], 40 K, Crystal | – | – | 29.84 ± 0.075
[2], 41.28 K, Crystal | – | – | 30.77 ± 0.083
[2], 45.76 K, Crystal | – | – | 34.06 ± 0.083
[2], 50 K, Crystal | – | – | 36.83 ± 0.091
[2], 50.77 K, Crystal | – | – | 37.31 ± 0.091
[2], 51.97 K, Crystal | – | – | 38.07 ± 0.091
[2], 56.32 K, Crystal | – | – | 40.7 ± 0.1
[2], 56.46 K, Crystal | – | – | 40.78 ± 0.1
[2], 60 K, Crystal | – | – | 42.91 ± 0.1
[2], 61.85 K, Crystal | – | – | 43.99 ± 0.1
[2], 68.38 K, Crystal | – | – | 47.41 ± 0.11
[2], 70 K, Crystal | – | – | 48.25 ± 0.11
[2], 75.62 K, Crystal | – | – | 51.08 ± 0.12
[2], 80 K, Crystal | – | – | 53.33 ± 0.12
[2], 83.14 K, Crystal | – | – | 54.91 ± 0.12
[2], 90 K, Crystal | – | – | 58.16 ± 0.2
[2], 91.41 K, Crystal | – | – | 58.81 ± 0.2
[2], 100 K, Crystal | – | – | 62.77 ± 0.21
[2], 100.48 K, Crystal | – | – | 62.99 ± 0.21
[2], 110.08 K, Crystal | – | – | 67.46 ± 0.21
[2], 119.95 K, Crystal | – | – | 72.21 ± 0.21
[2], 120 K, Crystal | – | – | 72.23 ± 0.21
[2], 130.14 K, Crystal | – | – | 77.14 ± 0.22
[2], 140 K, Crystal | – | – | 82.08 ± 0.22
[2], 140.31 K, Crystal | – | – | 82.24 ± 0.22
[2], 150.42 K, Crystal | – | – | 87.34 ± 0.22
[2], 160 K, Crystal | – | – | 92.43 ± 0.22
[2], 160.43 K, Crystal | – | – | 92.66 ± 0.22
[2], 170.36 K, Crystal | – | – | 98.04 ± 0.23
[2], 180 K, Crystal | – | – | 103.34 ± 0.24
[2], 180.29 K, Crystal | – | – | 103.5 ± 0.24
[2], 190.33 K, Crystal | – | – | 109.13 ± 0.24
[2], 200 K, Crystal | – | – | 114.64 ± 0.25
[2], 200.45 K, Crystal | – | – | 114.9 ± 0.25
[2], 210.56 K, Crystal | – | – | 120.76 ± 0.26
[2], 220 K, Crystal | – | – | 126.26 ± 0.27
[2], 220.64 K, Crystal | – | – | 126.63 ± 0.27
[2], 230.69 K, Crystal | – | – | 132.62 ± 0.27
[2], 240 K, Crystal | – | – | 138.13 ± 0.27
[2], 240.71 K, Crystal | – | – | 138.54 ± 0.27
[2], 250.73 K, Crystal | – | – | 144.61 ± 0.28
[2], 260 K, Crystal | – | – | 150.24 ± 0.29
[2], 260.74 K, Crystal | – | – | 150.69 ± 0.29
[2], 270.62 K, Crystal | – | – | 156.67 ± 0.3
[2], 280 K, Crystal | – | – | 162.4 ± 0.31
[2], 280.51 K, Crystal | – | – | 162.71 ± 0.31
[2], 290.52 K, Crystal | – | – | 168.83 ± 0.31
[2], 298.15 K, Crystal | – | – | 173.51 ± 0.32
[2], 300 K, Crystal | – | – | 174.64 ± 0.32
[2], 300.53 K, Crystal | – | – | 174.97 ± 0.32
[2], 310.57 K, Crystal | – | – | 180.81 ± 0.32
[2], 320 K, Crystal | – | – | 186.29 ± 0.33
[2], 320.58 K, Crystal | – | – | 186.63 ± 0.33
[2], 331.02 K, Crystal | – | – | 192.65 ± 0.34
[2], 340 K, Crystal | – | – | 197.95 ± 0.34
[2], 341.47 K, Crystal | – | – | 198.62 ± 0.35
[2], 351.79 K, Crystal | – | – | 205.33 ± 0.35
[2], 360 K, Crystal | – | – | 210.16 ± 0.36
[2], 360.7 K, Crystal | – | – | 210.52 ± 0.36
[2], 368.49 K, Crystal | – | – | 215.56 ± 0.37
[2], 368.49 K, Liquid | – | – | 279.12 ± 0.44
[2], 375.44 K, Liquid | – | – | 281.15 ± 0.44
[2], 375.53 K, Liquid | – | – | 281.2 ± 0.44
[2], 380 K, Liquid | – | – | 282.47 ± 0.44
[2], 382.75 K, Liquid | – | – | 283.25 ± 0.44
[2], 389.88 K, Liquid | – | – | 285.37 ± 0.45
[2], 400 K, Liquid | – | – | 288.35 ± 0.45
[2], 405.81 K, Liquid | – | – | 290.05 ± 0.45
[2], 420 K, Liquid | – | – | 294.27 ± 0.46
[2], 423.59 K, Liquid | – | – | 295.34 ± 0.46
[2], 438.9 K, Liquid | – | – | 299.86 ± 0.47
[2], 440 K, Liquid | – | – | 300.19 ± 0.47

[1], Liquid
Conditions | mass density [kg/m3] | vapor or sublimation pressure [kPa]
369.98 K, Inclined piston gauge | – | 0.1033 ± 0.0009
373.12 K, Inclined piston gauge | – | 0.1259 ± 0.0009
374.97 K, Inclined piston gauge | – | 0.1406 ± 0.0009
383.13 K, Inclined piston gauge | – | 0.2221 ± 0.001
384.98 K, Inclined piston gauge | – | 0.2455 ± 0.001
393 K, Pycnometric method | 1063 ± 20 | –
393.13 K, Inclined piston gauge | – | 0.3779 ± 0.0012
394.98 K, Inclined piston gauge | – | 0.4163 ± 0.0012
403.12 K, Inclined piston gauge | – | 0.6229 ± 0.0013
404.96 K, Inclined piston gauge | – | 0.6815 ± 0.0013
408.13 K, Inclined piston gauge | – | 0.7902 ± 0.0014
413.12 K, Inclined piston gauge | – | 0.9955 ± 0.0016
414.97 K, Inclined piston gauge | – | 1.085 ± 0.0017
418.12 K, Inclined piston gauge | – | 1.249 ± 0.0018
423.12 K, Inclined piston gauge | – | 1.551 ± 0.002
424.96 K, Inclined piston gauge | – | 1.68 ± 0.0022
429.2 K, Twin ebulliometer | – | 2 ± 0.0078
429.96 K, Inclined piston gauge | – | 2.071 ± 0.0024
434.97 K, Inclined piston gauge | – | 2.537 ± 0.0028
436.27 K, Twin ebulliometer | – | 2.666 ± 0.0079
439.96 K, Inclined piston gauge | – | 3.091 ± 0.0033
446.77 K, Twin ebulliometer | – | 4 ± 0.0079
454.6 K, Twin ebulliometer | – | 5.333 ± 0.008
466.26 K, Twin ebulliometer | – | 7.999 ± 0.0082
475.01 K, Twin ebulliometer | – | 10.67 ± 0.008
482.08 K, Twin ebulliometer | – | 13.33 ± 0.009
489.42 K, Twin ebulliometer | – | 16.66 ± 0.009
495.53 K, Twin ebulliometer | – | 19.93 ± 0.009
503.55 K, Twin ebulliometer | – | 25.02 ± 0.01
511.63 K, Twin ebulliometer | – | 31.17 ± 0.011
519.75 K, Twin ebulliometer | – | 38.56 ± 0.013
527.93 K, Twin ebulliometer | – | 47.37 ± 0.014
536.16 K, Twin ebulliometer | – | 57.81 ± 0.016
544.44 K, Twin ebulliometer | – | 70.11 ± 0.018
552.77 K, Twin ebulliometer | – | 84.53 ± 0.021
561.14 K, Twin ebulliometer | – | 101.32 ± 0.03
569.59 K, Twin ebulliometer | – | 120.78 ± 0.03

Conditions | Molar enthalpy of transition or fusion [kcal/mol]
[3] | 5.798 ± 0.00741
